Consider six molecules from patent US8518677B2, “Microbial bioreaction process” (Evolva Sa, priority 2007, dated 2013).

Where two headings read alike, the source gives them in different places. Bounds are passed on as bounds.

Data set [1] is described as follows: Stilbenoid levels in batch culture of solvent-adapted PALCPR, dodecane/octylacetate two-phase vs control (HPLC). On the set-up: species or system S. cerevisiae. As to conditions: for Upper phase (0.3 L) % total: 200 ml dodecane + 100 ml octylacetate on 1 L medium; for Lower phase (1 L) % total: aqueous medium phase, dodecane/octylacetate. Here is the method: (§1) A Phenomenex (Torrance, Calif., USA) Luna 3 micrometer C18 (100×2.00 mm) column was used at 60° C. As mobile phase a gradient of acetonitrile and milliq water (both containing 50 ppm trifluoroacetic acid) was used at a flow of 0.4 ml/min. The gradient profile was linear from 15% acetonitrile to 100% acetonitrile over 20 min.

Data set [2] in a line: Stilbenoid levels in two-phase batch culture of evolved PALCPR (PALCPR-evolved-I) with octylacetate (HPLC). Details: species or system S. cerevisiae. As to conditions: for Upper phase (0.1 L) % total: 100 ml octylacetate on 1 L medium; for Lower phase (1 L) % total: aqueous phase, octylacetate. Here is the method: as §1
(§2) For that, cells of the culture described in the previous example were harvested during mid-exponential-phase and stored at −80° C. in 15% glycerol and subsequently a fermentor, containing the same medium as described in the previous example with 10 g/l glucose and 100 g/l galactose, was then inoculated with cells of said PALCPR-solvent culture. The cells were allowed to fully consume the glucose at a stirring speed of 1000 rpm with an average dissolved oxygen content of above 70% of saturated air. At the onset of galactose consumption, the stirring rate was turned down to 300 rpm, after which slowly 100 ml of octylacetate was added.
(§3) For the determination of stilbenoids, an aliquot of 25 ml of cell broth was collected, and phase separation was initiated by centrifugation at 3500 g for 5 minutes. Both the upper octylacetate phase and the lower aquous medium phase were collected separately with a pipet and directly analyzed for their content of stilbenoids and intermediates by HPLC.

The nature of data set [3]: Stilbenoid levels in two-phase batch culture of PALCPR-evolved-II with octylacetate (HPLC). Particulars: for Upper phase (0.1 L) % total: 100 ml octylacetate from start; for Lower phase (1 L) % total: aqueous phase, octylacetate. Details: species or system S. cerevisiae. As to the method: as §1
However, the medium now only contained 100 g/l galactose and did contain 100 ml of octylacetate from the beginning of the fermentation. In addition, the stirrer speed was instantly set at 800 rpm. […] The strain is referred to as PALCPR-evolved-II.
as §3

The nature of data set [4]: Stilbenoid levels in two-phase batch culture of PALCPR-evolved-III with octylacetate (HPLC). On the set-up: species or system S. cerevisiae. Particulars: for Upper phase (0.1 L) % total: 100 ml octylacetate from start; for Lower phase (1 L) % total: aqueous phase, octylacetate. Here is the method: as §1
The stirrer speed was instantly set at 800 rpm. […] The strain is referred to as PALCPR-evolved-III.
as §3

The nature of data set [5]: Stilbenoid levels in batch culture of PALCPR-evolved-III with nonyl-acetate vs control (HPLC). Particulars: for Upper phase (0.1 L) % total: PALCPR-solvent (PALCPR-evolved-III), 100 ml nonyl-acetate. Details: species or system S. cerevisiae. Here is the method:
as §1
The stirrer speed was instantly set at 800 rpm. […] The cultivation will be referred to as PALCPR-solvent. […] The cultivation will be referred to as PALCPR-control.
(§4) For the determination of stilbenoids, an aliquot of 25 ml of cell broth was collected, and phase separation was initiated by centrifugation at 3500 g for 5 minutes. Both the upper nonylacetate phase and the lower aqueous medium phase were collected separately with a pipette and directly analyzed for their content of stilbenoids and intermediates by HPLC.

Data set [6] can be described thus: Stilbenoid levels in batch culture of non-evolved FS09229 with nonyl-acetate vs control (HPLC). As to conditions: FS09229-solvent; for Upper phase (0.1 L) % total: 100 ml nonyl-acetate; for Lower phase (1 L) % total: aqueous phase, nonyl-acetate. On the set-up: species or system S. cerevisiae. As to the method:
as §1
The non-evolved FS09229 strain described in previous examples was grown in the presence of nonyl-acetate. […] The stirrer speed was instantly set at 800 rpm. […] The cultivation will be referred to as FS09229-solvent. […] The cultivation will be referred to as FS09229-control.
as §4

Data set [7] relates to Escherichia coli strain FS06112. As to the kind of experiment: Glycerol consumption of FS06112 shakeflask cultures in the presence of extraction solvent. The format is cell-based. As to the method:
(§5) A glycerol stock of strain FS06112 was used to inoculate 500 ml baffled shake flasks that contained 100 ml modified M9 medium consisting of 4.5 g/l glycerol, 1.5 g/l yeast extract, 3 g/l K2HPO4, 6.8 g/l Na2HPO4, 0.5 g/l NaCl, 1 g/l NH4C, 50 μg/ml ampicillin and 50 μg/ml kanamycin; the initial pH was set at 7.0. The shakeflasks were incubated at ambient temperature, and were mixed with a magnetic stirring bar at approximately 150 rpm. After 5 hours, isopropyl β-thiogalactopyranoside (IPTG) was added at a final concentration of 4 mM, as an inducer of the T7 promoter that was in front of each of the three genes TAL, 4CL and VST. After one hour an aliquot of 10 ml of the solvent octyl acetate was added to one shakeflask that is now referred to as FS06112-solvent; the shakeflask culture without solvent will be referred to as FS06112-control.
as §5, with “β-thiogalactopyranoside(IPTG)” for “β-thiogalactopyranoside (IPTG)”, “methyl decanoate” for “octyl acetate”
A glycerol stock of strain FS06112 was used to inoculate 500 ml baffled shake flasks that contained 100 ml modified M9 medium consisting of 4.5 g/l glycerol, 1.5 g/l yeast extract, 3 g/l K2HPO4, 6.8 g/l Na2HPO4, 0.5 g/l NaCl, 1 g/l NH4C, 50 μg/ml ampicillin and 50 μg/ml kanamycin; the initial pH was set at 7.0. […]

The conditions of data set [8]: partition coefficient between water and octanol; cited from earlier work.
In data set [9] the test system is S. cerevisiae strain PALCPR. As to the kind of experiment: Growth of evolved PALCPR strains in the presence of extraction solvent (CO2 production). The format is cell-based. As to the method: as §2, with “The cells of the PALCPR-solvent culture described in the previous example were taken as starting point because the presence of the solvent mixture would possibly have already evoked adaptation of cells to solvents. For” for “For”
Galactose consumption indeed commenced again. A small arrest in CO2 production again occurred after 20 hours which, however, recovered after 5 hours, after which the cells grew exponentially with concomitant production of CO2, consumption of galactose within less than 40 hours. Based upon the CO2 production the specific growth rate was estimated to be 0.062 1/h (FIG. 2). The final biomass concentration was 21.6 g/l.
In order to further improve said strain in terms of length of lag-phase and growth rate, a 25 ml aliquot of the exponentional growing PALCPR-evolved-I strain was used to inoculate a fermentor, containing a similar medium as described in the previous example. However, the medium now only contained 100 g/l galactose and did contain 100 ml of octylacetate from the beginning of the fermentation. In addition, the stirrer speed was instantly set at 800 rpm. Upon inoculation of the fermentor, consumption of galactose only commenced after approximately 40 hours, indicated by a slow increase in CO2 signal, a decrease in dissolved oxygen and addition of base. Indeed the cells continued to grow exponentially with concomitant production of CO2, and consumed the galactose within less than 90 hours. Based upon the CO2 production the specific growth rate was estimated to be 0.041 1/h (FIG. 3). The final biomass concentration was 21.5 g/l. The strain is referred to as PALCPR-evolved-II.
Therefore, to further improve said strain in terms of both length of lag-phase and growth rate, a 50 ml aliquot of the exponentional growing PALCPR-evolved-II strain was used to inoculate a fermentor, containing a similar medium as described in the previous example (thus containing 100 g/l galactose 100 ml of octylacetate from the beginning of the fermentation). The stirrer speed was instantly set at 800 rpm. Upon inoculation of the fermentor, consumption of galactose already commenced after less then 20 hours, indicated by a slow increase in CO2 signal, a decrease in dissolved oxygen and addition of base. Indeed the cells further grew exponentially with concomitant production of CO2, and now consumed the galactose within approximately 50 hours. Based upon the CO2 production the specific growth rate was estimated to be 0.091 1/h (FIG. 4). The final biomass concentration was 18.9 g/l. The strain is referred to as PALCPR-evolved-III.
The evolved PALCPR-evolved-III strain described in the previous example was grown in the presence of nonyl-acetate, a similar solvent as octylacetate with one additional carbon atom. A 1 ml aliquot of a glycerol stock that was made from an exponentional growing PALCPR-evolved-III strain was used to inoculate a fermentor, containing a similar medium as described in the previous example, containing only 100 g/l galactose and 100 ml of nonyl-acetate from the beginning of the fermentation. The stirrer speed was instantly set at 800 rpm. Upon inoculation of the fermentor, consumption of galactose only commenced after approximately 70 hours, indicated by a slow increase in CO2 signal, a decrease in dissolved oxygen and addition of base. […]

The mark [10] stands for this setting: PALCPR-evolved-II, 100 ml solvent from start, 800 rpm.
Where [11] appears, read: PALCPR-evolved-III, 100 ml solvent from start, 800 rpm, fresh inoculum.

Regarding `O=C(O)C=Cc1ccccc1` [Cinnamic acid, cinnamic acid], the “Upper phase (0.3 L) % total” value in [1] was determined as 56.9 % total. Besides, the “Lower phase (1 L) % total” value in [1] is reported as 43.1 % total; in [2] it was 47.5 % total; in [3], 11.4 % total; in data set [4] it was 28.7 % total; in data set [5] (PALCPR-solvent, aqueous phase, nonyl-acetate) it was 70.4 % total; in data set [6] it was 57.8 % total. The “Upper phase (0.1 L) % total” value in data set [2] is given as 52.5 % total; in data set [3], 88.6 % total; in data set [4], 71.3 % total; in data set [5], 29.6 % total; in [5] (listed as cinnamic acid) it was 25 % total; in data set [6], 42.2 % total. The “Upper phase (0.1 L) % total” value in data set [6] (listed as cinnamic acid) turned out to be 42 % total.

As for `O=C(O)/C=C/c1ccc(O)cc1` [Coumaric acid, 4-coumaric acid], the “Upper phase (0.1 L) % total” value was 18.0 % total in data set [2], 59.3 % total in [3] and 40.0 % total in data set [4]. In addition, the “Lower phase (1 L) % total” value came out at 82.0 % total in data set [2], 40.7 % total in [3] and 60.0 % total in data set [4].

On to `Oc1cc(O)cc(/C=C/c2ccccc2)c1` [Pinosylvin, pinosylvin], for which the “Upper phase (0.3 L) % total” value in [1] worked out at 95.2 % total; in data set [1] (listed as pinosylvin) it was 95 % total. Further, the “Lower phase (1 L) % total” value in [1] is listed as 4.8 % total; in data set [2], 0; 0 % total; in data set [3], 0; 0 % total; in data set [4], 9.7 % total; in [6], 0.0; 0.0 % total. Further, the “Upper phase (0.1 L) % total” value in [2] was 100 % total; in [3], 100 % total; in [4], 90.3 % total; in [4] (listed as pinosylvin), 100 % total; in data set [6], 100 % total.

As to `CCCCCCCCCC(=O)OC` [methyl decanoate], the “time in which the glycerol was consumed” value in data set [7] is at most 48 h. Besides, the log partition coefficient (logP) (in general, a log measure of how a compound divides between an organic and an aqueous phase) in [8] is 4.3.

Regarding `CCCCCCCCOC(C)=O` [n-octyl acetate], the “lag-phase until galactose consumption commenced” value in data set [9] (setting [10]) is “approximately 40 hours”; in data set [9] (setting [11]), below 20 h. For the same molecule, the specific growth rate in [9] (setting [10]) is 0.041 h⁻¹; in data set [9] (setting [11]) it was 0.091 h⁻¹; in data set [9] (cells from PALCPR-solvent culture (PALCPR-evolved-I), 100 ml solvent added to 1 L at onset of galactose consumption) it was 0.062 h⁻¹. The “time until cells started to grow after solvent addition (lag-phase)” value in [9] (cells from PALCPR-solvent culture (PALCPR-evolved-I), 100 ml solvent added to 1 L) is recorded as “approximately 170 hours”. For the same molecule, in data set [7], the “time in which 2.5 g/l of glycerol was consumed” value is at most 24 h. Also, the lipophilicity (logP) in data set [8] was 3.7.

As to `CCCCCCCCCC(C)=O` [undecanone], the “time in which the glycerol was consumed” value in data set [7] (FS06112-solvent, 10 ml solvent on 100 ml medium, control 30 hours) is at most 48 h.
